Source: US20110028509A1, “Sulfonamides” (MERCK SERONO SA, priority 2008, published 2011)

Assays:
Assay type in all cases: cell-based
[1] = target: T1, CXCR3 (Homo sapiens, UniProt P49682); experiment: Chemotaxis assay IP10, L1.2 recombinant cells expressing hCXCR3; conditions: L1.2 hCXCR3 cells, IP10 around 0.3 nM, 4 hours
T1 sequence (P49682 1-368): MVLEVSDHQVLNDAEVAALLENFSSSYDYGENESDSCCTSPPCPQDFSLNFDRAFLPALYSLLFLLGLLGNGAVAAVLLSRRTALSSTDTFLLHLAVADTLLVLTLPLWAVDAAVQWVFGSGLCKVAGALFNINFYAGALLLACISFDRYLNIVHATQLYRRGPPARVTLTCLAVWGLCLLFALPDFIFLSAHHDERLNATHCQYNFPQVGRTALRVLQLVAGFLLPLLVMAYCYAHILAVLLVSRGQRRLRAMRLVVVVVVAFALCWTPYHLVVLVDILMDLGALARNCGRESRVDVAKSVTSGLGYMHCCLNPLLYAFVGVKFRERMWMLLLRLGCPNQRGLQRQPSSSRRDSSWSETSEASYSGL
Method: (§1) Human CXCR3 cDNA was amplified by PCR from a human cells cDNA library (Clontech) and subcloned into pcDNA3.1 (Invitrogen). Murine pre-B L1.2 cells were transfected with hCXCR3-pcDNA3.1 and were grown at 37° C., 5% CO2 in RPMI 1640 medium (Invitrogen, USA) supplemented with 5% heat inactivated fetal calf serum (Cancerra, Australia), 2 mM glutamine (Invitrogen), 50 units ml−1 penicillin, 50 μml−1 streptomycin. Stable transfectant clonal populations were selected using 800 μg/ml geneticin.
L1.2 recombinant cells expressing the receptor hCXCR3 were maintained in culture in RPMI 1640 (invitrogen), 5% Foetal Bovine Serum (invitrogen), 2 mM glutamine(invitrogen), 50 u/ml penicillin/streptomycin (invitrogen), at 37° C.-5% CO2—in an H2O saturated incubator. In order to stimulate the expression of the receptor, cells were incubated overnight with 5 mM butyric acid (Sigma)
This mix of cells/compounds was then incubated at 37° C.-5% CO2—in an H2O saturated incubator during 30 minutes. Cells were then dispensed as a drop on each corresponding wells of the chemotaxis system. Cell migration was then induced at 37° C.-5% CO2—in an H2O incubator during 4 hours. Filters were then removed and cells that had migrated were transferred in a black plate (Costar). The plates were stored overnight at −80° C. Cell migration ratio was calculated using the cyquant dye (Molecular Probes-C7026).

[2] = target: T1, CXCR3; experiment: CXCR3 Ca2+ mobilization (FLIPR), stable hCXCR3-CHO cell line, I-TAC stimulated; parameters: host or cells: CHO cells stably expressing hCXCR3; conditions: hCXCR3-CHO cells, I-TAC 100 nM stimulated Ca2+ response; read-out: Ca-ITAC
Outline: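 Ca2+ mobilization triggered by I-TAC (100 nM) measured by FLIPR in a stable hCXCR3-CHO line. Dye-loaded (60 min) cells preincubated with compounds 20 minutes at room temperature; antagonism given relative to the compound-free I-TAC signal set at 100%.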

[3] = target: T1, CXCR3; experiment: Chemotaxis assay ITAC (CXCL11), L1.2-CXCR3 cells; parameters: expressed in transfected cells; conditions: 1 nM CXCL11 (I-TAC), 4 hours
Method: as §1
L1.2-CXCR3 cells were grown for 24 hours at 0.5×10^6 cells/ml in chemotaxis medium containing 5 mM butyric acid (Sigma). Compounds were on one hand mixed with 1 nM of CXCL11 (I-TAC) in phenol-red free RPMI 1640 (invitrogen) supplemented with 5% fetal bovine serum in presence of 1% DMSO. The CXCL11/compounds mixture was then added to lower chambers of chemotaxis 96 well microplates (neuroprobe), and framed filters ([…] pore size) were put on top of the lower chambers. Compounds were on the other hand mixed with L1.2 CXCR3 cells and incubated in chemotaxis medium at 1.5×10^6 cells/ml in presence of 1% DMSO at 37° C., 5% CO2 for 30 minutes. Cells/compounds mixture was then added on top of the frame filters and migration was performed at 37° C., 5% CO2 for 4 hours. The number of migrated cells in the bottom chamber was determined using the CyQuant GR dye (Molecular Probe), according to the manufacturer.

| SMILES | IC50 [1] [µM] | IC50 [2] [nM] | IC50 [3] [nM] |
| --- | --- | --- | --- |
| CCOc1ccc(S(=O)(=O)N(Cc2ccc(C(=O)O)cc2)Cc2cccnc2)cc1 [Example 157] | 4.18 | 1620 |  |
| CC(CNC(=O)c1ccc(CN(Cc2ccccn2)S(=O)(=O)c2ccc(C#N)cc2)cc1)c1ccccc1 (centres unmarked) [Example 98] | 0.16 | 400 |  |
| O=C(NS(=O)(=O)Cc1cccc([N+](=O)[O-])c1)c1ccc(CN(Cc2ccccc2)S(=O)(=O)c2ccc(Cl)cc2)cc1 [Example 15, 4-({benzyl[(4-chlorophenyl)sulfonyl]amino}methyl)-N-[(3-nitrobenzyl)sulfonyl]benzamide] | 2.42 |  |  |
| O=C(NCC1CC1)c1ccc(CN(Cc2ccccc2F)S(=O)(=O)c2ccc(Cl)cc2)cc1 [Example 29, 4-{[(4-Chloro-benzenesulfonyl)-(2-fluoro-benzyl)-amino]-methyl}-N-cyclopropyl methyl benzamide] | 0.51 | 1000 |  |
| Cc1noc(C)c1CN(Cc1ccc(-c2nnn[nH]2)cc1)S(=O)(=O)c1ccc(Cl)cc1 [Example 58, 4-chloro-N-[(3,5-dimethylisoxazol-4-yl)methyl]-N-[4-(2H-tetrazol-5-yl)benzyl]benzene sulfonamide] | 1.43 |  |  |
| O=C(NCCc1cccc([N+](=O)[O-])c1)c1ccc(CN(Cc2ccccc2)S(=O)(=O)c2ccc(Cl)cc2)cc1 [Example 4, 4-({benzyl[(4-chlorophenyl)sulfonyl]amino}methyl)-N-[2-(3-nitrophenyl)ethyl]benzamide] | 2.45 |  |  |
| O=C(NC[C@@H]1CCCO1)c1ccc(CN(Cc2ccccc2)S(=O)(=O)c2ccc(Cl)cc2)cc1 [Example 3, 4-({benzyl[(4-chlorophenyl)sulfonyl]amino}methyl)-N-[(2S)-tetrahydrofuran-2-ylmethyl]benzamide] | 2.27 |  |  |
| COc1ccc(S(=O)(=O)N(Cc2ccc(C(=O)NCc3cccc(Cl)c3)cc2)Cc2cccnc2)cc1 [Example 9, N-(3-chlorobenzyl)-4-{[[(4-methoxyphenyl)sulfonyl](pyridin-3-ylmethyl)amino]methyl}benzamide] | 1.15 |  |  |
| O=C(NCc1cccc(Cl)c1)c1ccc(CN(Cc2ccccc2)S(=O)(=O)c2ccc(Cl)cc2)cc1 [Example 1, 4-({benzyl[(4-chlorophenyl)sulfonyl]amino}methyl)-N-(3-chlorobenzyl)benzamide] | 1.29 |  |  |
| CC(C)(C)OC(=O)N1C[C@@H]2[C@H](C1)[C@H]2NC(=O)c1ccc(CN(Cc2ccccc2)S(=O)(=O)c2ccc(Cl)cc2)cc1 [Example 106] |  | 300 | 510 |
| COC(=O)c1ccc(S(=O)(=O)N(Cc2ccc(C(=O)NC3(c4ccccc4)CC3)cc2)Cc2ccccn2)cc1 [Example 150] |  | 300 | 10 |
| CCOc1ccc(S(=O)(=O)N(Cc2ccc(C(=O)O)c(F)c2)Cc2ccccn2)cc1 [Example 66, 4-{[(4-Ethoxy-benzenesulfonyl)-pyridin-2-ylmethyl-amino]-methyl}-2-fluoro-benzoic acid] |  | 2000 | 4600 |
| N#Cc1ccc(S(=O)(=O)N(Cc2ccc(C(=O)NCc3ccncc3)cc2)Cc2ccccn2)cc1 [Example 137] |  | 3000 | 4310 |

Now from value to molecule:

| IC50 [1] [µM] | IC50 [2] [nM] | IC50 [3] [nM] | SMILES |
| --- | --- | --- | --- |
| 2.56 |  |  | O=S(=O)(c1ccc(Cl)cc1)N(Cc1ccc(F)cc1)Cc1ccc(-c2nnn[nH]2)cc1 [Example 22, 4-chloro-N-(4-fluorobenzyl)-N-[4-(1H-tetrazol-5-yl)benzyl]benzenesulfonamide] |
| 0.911 | 300 |  | O=S(=O)(c1ccc(Cl)cc1)N(Cc1ccc(-c2nnn[nH]2)cc1)Cc1cc2ccccc2cn1 [Example 76, 4-chloro-N-(isoquinolin-3-ylmethyl)-N-[4-(2H-tetrazol-5yl)benzyl]benzene sulfonamide] |
| 0.207 | 175 |  | O=C(NS(=O)(=O)Cc1cccc([N+](=O)[O-])c1)c1ccc(CN(Cc2ccccn2)S(=O)(=O)c2ccc(Cl)cc2)cc1 [Example 50, N-(3-nitrophenylmethanesulfonyl)-4-{[[(4-chlorophenyl)sulfonyl](pyridin-2-yl-methyl)amino]methyl}benzamide] |
| 0.12 | 100 |  | O=C(Cc1cccc(Cl)c1)Nc1ccc(CN(Cc2ccccn2)S(=O)(=O)c2ccc(Cl)cc2)cc1 [Example 160] |
| 1.29 |  |  | O=S(=O)(c1ccc(Cl)cc1)N(Cc1ccc(-c2nnn[nH]2)cc1)Cc1cccc(Cl)c1 [Example 21, 4-chloro-N-(3-chlorobenzyl)-N-[4-(1H-tetrazol-5-yl)benzyl]benzenesulfonamide] |
| 0.36 | 4750 |  | N#Cc1ccc(S(=O)(=O)N(Cc2ccc(C(=O)NCC3CC3)cc2)Cc2ccccn2)cc1 [Example 43] |
| 0.548 | 415 |  | O=S(=O)(c1ccc(Cl)cc1)N(Cc1ccc(-c2nnn[nH]2)cc1)Cc1ccccc1Cl [Example 63, 4-chloro-N-(2-chlorobenzyl)-N-[4-(2H-tetrazol-5-yl)benzyl]benzenesulfonamide] |
| 3.87 |  |  | COc1ccc(S(=O)(=O)NC(=O)c2ccc(CN(Cc3ccccn3)S(=O)(=O)c3ccc(Cl)cc3)cc2)cc1 [Example 14, 4-{[[(4-chlorophenyl)sulfonyl](pyridin-2-ylmethyl)amino]methyl}-N-[(4-methoxyphenyl)sulfonyl]benzamide] |
| 0.47 |  |  | O=S(=O)(c1ccc(Cl)cc1)N(Cc1ccc(-c2nnn[nH]2)cc1)Cc1ccccc1F [Example 20, 4-chloro-N-(2-fluorobenzyl)-N-[4-(1H-tetrazol-5-yl)benzyl]benzene sulfonamide] |
| 3.67 |  |  | O=S(=O)(c1ccc(Cl)cc1)N(Cc1ccc(-c2nnn[nH]2)cc1)Cc1ncco1 [Example 59, 4-chloro-N-(1,3-oxazol-2-ylmethyl)-N-[4-(2H-tetrazol-5-yl)benzyl]benzene sulfonamide] |
| 0.695 |  |  | O=S(=O)(c1ccc(Cl)cc1)N(Cc1ccc(-c2nnc(O)o2)cc1)Cc1ccccn1 [Example 19, 4-chloro-N-[4-(5-hydroxy-1,3,4-oxadiazol-2-yl)benzyl]-N-(pyridin-2-ylmethyl)benzene sulfonamide] |
| 1.46 |  |  | COc1cccc(CN(Cc2ccc(-c3nnn[nH]3)cc2)S(=O)(=O)c2ccc(Cl)cc2)c1 [Example 23, 4-chloro-N-(3-methoxybenzyl)-N-[4-(1H-tetrazol-5-yl)benzyl]benzene sulfonamide] |
|  | 10000 | 4180 | Cc1nnc(CNC(=O)c2ccc(CN(Cc3ccccn3)S(=O)(=O)c3ccc(C#N)cc3)cc2)o1 [Example 142] |
|  | 800 | 54 | COC(=O)[C@@H](NC(=O)c1ccc(CN(Cc2ccccn2)S(=O)(=O)c2ccc(Cl)cc2)cc1)c1ccccc1 [Example 342] |
| 0.885 |  |  | COc1ccc(CN(Cc2ccc(-c3nnn[nH]3)cc2)S(=O)(=O)c2ccc(Cl)cc2)cc1 [Example 24, 4-Chloro-N-(4-methoxy-benzyl)-N-[4-(1H-tetrazol-5-yl)-benzyl]-benzenesulfonamide] |
|  | 200 | 4470 | O=S(=O)(c1ccc(OC(F)(F)F)cc1)N(Cc1ccc(-c2nnn[nH]2)cc1)Cc1ccccn1 [Example 120] |
| 0.882 |  |  | O=S(=O)(c1ccc(Cl)cc1)N(Cc1ccc(Cl)cc1)Cc1ccc(-c2nnn[nH]2)cc1 [Example 25, 4-chloro-N-(4-chlorobenzyl)-N-[4-(1H-tetrazol-5-yl)benzyl]benzenesulfonamide] |
|  | 400 | 50 | O=C(Nc1ccc(CN(Cc2ccccn2)S(=O)(=O)c2ccc(Cl)cc2)cc1)C(O)c1ccccc1 (centres unmarked) [Example 170] |
